This assay relates to VSV-G pseudotyped, replication defective HIV vector (HIV IIIB) in CIP4 cells. The assay is described as follows: microbe, parasite or virus in culture. Format: cell-based. Conditions: Human immunodeficiency virus 1, CIP4, 48 h, read-out: IC50 in the PHIV assay.

pIC50: −log10 of the molar value.

The term pIC50 denotes −log10 of the IC50, conventionally taken in molar units.

Consider `[2H]C([2H])([2H])c1cc(/C=C/C#N)cc(C([2H])([2H])[2H])c1Nc1ccnc(Nc2ccc(C#N)cc2)n1` [Compound D, (E)-4-((4-((4-(2-Cyanovinyl)-2,6-dimethylphenyl)amino)pyrimidin-2-yl)amino)benzonitrile-d6], for which the negative logarithm of the IC50 (pIC50) is 9.52.

(Values after US20110152303A1, “Chemical Compounds” (GlaxoSmithKline LLC, priority 2009, published 2011).)
